Among the data in PubChem BioAssay (NCI) are GI50 and TGI values, retold here.

Assay in all cases: NCI anticancer screen, dose series, 48 h
Assay [1] relates to CAKI-1 renal.
For assay [2], the system named is K-562 leukemia.
The subject of assay [3] is NCI-H522 lung.
The test system of assay [4] is OVCAR-5 ovarian.
For assay [5], the system named is T-47D breast.
Assay [6] concerns UACC-257 melanoma.
In assay [7] the test system is ACHN renal.
Assay [8] relates to OVCAR-4 ovarian.
Assay [9] has as its system SNB-19 CNS.
The subject of assay [10] is SK-MEL-2 melanoma.

Where “and” joins values, the source holds several entries; their conditions need not be identical. Equal values may be shown once.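 Protocol summary: plate cells (96-well), add compound at 5 concentrations, incubate 48 h, interpolate endpoints linearly. At the GI50, growth is halved. The concentration for full growth arrest is given as TGI.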

With `C[C@]12C[C@H](CCCCCCNCCOC(=O)NCCCc3ccc(N(CCCl)CCCl)cc3)C3=C4CCC(=O)C=C4CCC3C1CC[C@@H]2O` (stereo partly specified), the GI50 was 1.55 µM in assay [1]; 0.308 µM in [2]; 1.63 µM in assay [3]; 5.84 µM in [4]; 1.17 µM in [5]; 1.69 µM in [6]. The TGI was found to be 3.3 µM in [1]; 1.07 µM in assay [2]; 3.18 µM in assay [3]; 11 µM in assay [4]; 4.5 µM in assay [5]; 3.21 µM in [6].

In the case of `Clc1nc(Cl)c2ncn(CC3(Cn4cnc5c(Cl)nc(Cl)nc54)COC3)c2n1`, the GI50 was 0.57 µM in assay [7]; 0.195 µM in assay [1]; 0.966 µM in assay [3]; 0.276 µM in assay [8]; 0.634 µM in [4]; 0.332 µM in [9]. Besides, the GI50 in assay [5] is 0.179 µM; in assay [6], 0.197 µM. The TGI in assay [7] was 1.12 µM; in assay [1], 0.496 µM; in [3], 3.07 µM; in assay [8], 0.763 µM; in assay [4] it was 1.2 µM; in [9], 0.803 µM. For the same compound, the TGI in assay [5] stood at 0.391 µM; in [6], 0.427 µM.

Consider `COC(=O)C1CC23CCCN4CCC5(c6ccccc6N(C=O)C15CC2)C43` (stereo unspecified), for which the TGI in assay [7], in assay [1], in [3], in assay [8], in assay [4] and in assay [10] was above 100 µM throughout. The TGI in [9], in assay [5] and in [6] was above 100 µM throughout.

With `CCOC(=O)/C(C=Nc1ccc(-c2nc3ccccc3[nH]2)cc1)=C(/C)O`, the GI50 was 15.4 µM in assay [7]; 17.6 µM in [1]; 4.51 µM in assay [2]; 10.7 µM in [3]; 17.1 µM in [4]; 9.14 µM in assay [10]. Further, the GI50 was 32.7 µM in [9], 10.3 µM in [5] and 11.5 µM in assay [6]. The TGI in assay [7] is 42.4 µM; in [1], above 50 µM; in [2] it was 14.8 µM; in [3], 26.4 µM; in assay [4] it was 36.3 µM; in assay [10], 22.6 µM. In addition, the values for the TGI in [9], in assay [5] and in assay [6] were above 50 µM, 35.4 µM and 28.3 µM, respectively.

Take `COc1ccc(C(=S)N2CCN(c3cccc(C)c3)CC2)cc1OC`: the GI50 was 5.92 µM in assay [7]; 3.21 µM in [1]; 1.2 µM in assay [2]; 57.7 µM in assay [8]; above 100 µM in assay [4]; 47.5 µM in [10]. Besides, the GI50 is 6.61 µM in assay [9], 4.33 µM in assay [5] and 55.4 µM in [6]. The TGI in assay [7], in [1], in assay [2], in assay [8], in [4] and in assay [10] was above 100 µM each time. The TGI in assay [9], in assay [5] and in assay [6] was above 100 µM in each case.

As to `CCN(Cc1cc(Nc2nc(C)cn3c(-c4cn[nH]c4)cnc23)sn1)C(C)(C)CO`, the GI50 in assay [7] was 0.0306 µM; in assay [1], 0.0358 µM; in assay [3], 0.0227 µM; in [8] it was below 0.0108 µM; in assay [4], 0.0676 µM; in [10], 0.0293 µM. The figures for the GI50 in assay [9], in [5] and in assay [6] were 0.11 µM, 0.0689 µM and 0.622 µM, respectively. Besides, the TGI in [7] stood at 11.9 µM; in assay [1], 11.5 µM; in assay [3] it was 2.26 µM; in assay [8] it was 8.38 µM; in assay [4] it was 10.7 µM; in assay [10], 7.35 µM. Moreover, the TGI is 9.57 µM in assay [9], 18.5 µM in [5] and 9.93 µM in [6].

As for `C=C(C)C(O)CCC1(C)C=Cc2c(c(C)cc3c2[nH]c2ccccc23)O1` (stereo unspecified), the TGI in assay [7] was 25 µM and 16 µM; in assay [2] it was 24.6 µM and 7.13 µM; in assay [3] it was 11.3 µM and 9.34 µM; in assay [8] it was 30.8 µM; in [4], 8.96 µM and 6.03 µM; in assay [10], 8.32 µM. Besides, the TGI in assay [9] was 25 µM and 23.6 µM; in assay [5], 21.5 µM; in assay [6], 20.5 µM. The GI50 in assay [2] was 2.78 µM; in assay [3], 3.29 µM; in [4] it was 2.11 µM; in assay [10], 2.11 µM; in [9], 11.5 µM.

With `C=CCN=c1sc2c(n1NC(=O)c1cc3ccc1CCc1ccc(cc1)CC3)C(=O)c1ccccc1C2=O`, the GI50 in assay [7] was 1.42 µM; in [1] it was 1.18 µM; in [3], 1.49 µM; in assay [8] it was 1.26 µM; in assay [4], 2.03 µM; in assay [10], 1.74 µM. Also, the GI50 in assay [9] was 1.67 µM; in [5] it was 2.02 µM; in assay [6], 1.55 µM. Also, the TGI in assay [7] is 2.91 µM; in assay [1] it was 2.86 µM; in [3], 4.19 µM; in assay [8], 2.56 µM; in assay [4] it was 4.38 µM; in [10], 4.32 µM. The TGI in [9] stood at 3.44 µM; in assay [5], 7.29 µM; in [6], 3.15 µM.

`CCOC(=O)c1c(C)nc2c(c1N)CC(=O)N2Cc1ccc(OC)cc1`: the GI50 is 9.56 µM in [7]; above 100 µM in [1]; above 100 µM in assay [2]; above 100 µM in assay [3]; above 100 µM in [8]; above 100 µM in assay [4]. In addition, the GI50 in assay [10] was 36.1 µM; in assay [9], 4.87 µM; in assay [5], 25.9 µM. The TGI in assay [7], in assay [1], in assay [2], in assay [3], in assay [8] and in assay [4] was above 100 µM throughout. For the same compound, the TGI in [10], in assay [9] and in [5] was above 100 µM each time.

For the compound `CC1(C)C2CCC13C(=O)C1OC3(C2)C2C(=O)c3cc4ccccc4cc3C(=O)C12` (stereo unspecified), the GI50 in [7] is 10.4 µM; in assay [1] it was 1.29 µM; in [2], 4.92 µM; in [3] it was 23.1 µM; in assay [4], 18.4 µM; in assay [10] it was 42.2 µM. For the same compound, the GI50 is 5.57 µM in assay [9], 4.68 µM in [5] and 20.8 µM in assay [6]. For the same compound, the TGI in assay [7] was 26.3 µM; in assay [1], 5.33 µM; in assay [2], 33.7 µM; in assay [3] it was above 100 µM; in assay [4], above 100 µM; in [10], above 100 µM. Besides, the TGI was determined as 46.4 µM in assay [9], 50.5 µM in assay [5] and 64.8 µM in assay [6].

`O=C(c1ccccc1)c1ccccc1-c1ccccc1`: the GI50 in assay [7] was 9.46 µM; in [1] it was 1.52 µM; in assay [3] it was 0.74 µM; in assay [8], 18.7 µM; in assay [4], 14.6 µM; in assay [10], 1.65 µM. Further, the GI50 was 5.45 µM in [9], 6.08 µM in [5] and 14.5 µM in assay [6]. The TGI in assay [7] is above 100 µM; in assay [1], 7.85 µM; in [3], 4.06 µM; in [8] it was above 100 µM; in [4], above 100 µM; in assay [10], 9.48 µM. The TGI in [9], in assay [5] and in [6] was above 100 µM in each case.

Regarding `COc1cc(/C=C\c2cc(OC)c(OC)c(OC)c2)cc(NC(=O)/C=C/c2cc(OC)c(OC)c(OC)c2)c1OC`, the GI50 in assay [7] was 8.38 µM; in assay [1] it was 2.8 µM; in [3], 2.73 µM; in assay [8] it was 3.86 µM; in assay [4], above 100 µM; in assay [10], 2.69 µM. Besides, the GI50 in assay [9] was 48.6 µM; in assay [5] it was 3.11 µM; in assay [6], 10.1 µM. The TGI is above 100 µM in assay [7]; above 100 µM in [1]; above 100 µM in [3]; above 100 µM in assay [8]; above 100 µM in assay [4]; 9.77 µM in assay [10]. The TGI in assay [9], in assay [5] and in assay [6] was above 100 µM throughout.

On to `CN1CCC2(CC1)ONC1=NCCN12`, for which the GI50 is 23.7 µM in assay [7]; 30.6 µM in [1]; 37.7 µM in assay [2]; 29.3 µM in [3]; above 100 µM in assay [8]; above 100 µM in assay [10]. The GI50 was above 100 µM in assay [9], 99.8 µM in assay [5] and above 100 µM in assay [6]. Also, the TGI in assay [7] was 74.5 µM; in assay [1], 90 µM; in assay [2], above 100 µM; in assay [3], above 100 µM; in [8] it was above 100 µM; in assay [10] it was above 100 µM. In addition, the TGI in assay [9], in assay [5] and in assay [6] was above 100 µM in each case.

For the compound `Cc1cccc(/C=C/c2c(C(=O)/C=C/c3ccccc3)c(C)nc3ccccc23)c1`, the GI50 was 1.62 µM in assay [7]; 1.29 µM in [1]; 1.98 µM in assay [4]; 1.77 µM in assay [10]; 1.67 µM in [9]; 1.29 µM in assay [5]. Besides, in assay [6], the GI50 is 1.65 µM. Moreover, the TGI in assay [7] amounted to 2.97 µM; in assay [1], 2.59 µM; in [4], 3.56 µM; in [10], 3.63 µM; in assay [9], 3.04 µM; in [5] it was 3.66 µM. Besides, in assay [6], the TGI came out at 3.28 µM.

In the case of `C=C1C(=O)O[C@H]2[C@H]1CC/C(CNC(=O)/C=C/c1cc(OC)c(OC)c(OC)c1)=C\CC[C@@]1(C)O[C@@H]21`, the GI50 in [7] was 1.27 µM; in assay [2] it was 0.601 µM; in assay [3] it was 0.232 µM; in assay [8], 1.51 µM; in assay [4], 2.44 µM; in assay [10], 1.73 µM. Also, the results for the GI50 in assay [9], in [5] and in assay [6] were 11.9 µM, 2.25 µM and 1.76 µM, respectively. Besides, the TGI in assay [7] turned out to be 2.89 µM; in [2] it was 4.13 µM; in assay [3], 1.1 µM; in assay [8], 10.5 µM; in [4], 12.9 µM; in assay [10], 7.18 µM. In addition, the TGI was found to be 32 µM in assay [9], 14.8 µM in [5] and 5.72 µM in assay [6].

As for `COC(=O)c1ccc(-c2nc3cc(Cl)c(Cl)cc3nc2C#N)cc1`, the GI50 in assay [7], in assay [1], in assay [2], in assay [3], in [8] and in assay [10] was above 100 µM throughout. Further, the GI50 in assay [9], in [5] and in [6] was above 100 µM in each case. The TGI in assay [7], in assay [1], in assay [2], in assay [3], in assay [8] and in [10] was above 100 µM throughout. The TGI in assay [9], in assay [5] and in [6] was above 100 µM throughout.

For the compound `CCCCCCCCNc1cc2c3c(c1)CCCN3CCC2`, the GI50 in assay [7] is 3.22 µM; in [2] it was 0.433 µM; in assay [3], 0.594 µM; in [8] it was 1.94 µM; in [4] it was 3.88 µM; in [10], 3.06 µM. The GI50 in [9] is 3.29 µM; in assay [5], 1.34 µM; in assay [6], 1.03 µM. Further, the TGI in assay [7] is 17.7 µM; in assay [2] it was above 100 µM; in assay [3] it was 6.47 µM; in assay [8], 12 µM; in assay [4] it was 17.5 µM; in assay [10], 12.7 µM. Also, the TGI in assay [9] is 19.4 µM; in assay [5], 21 µM; in assay [6], 6.71 µM.
